Measurements taken from US12570615B2, “Quinazolinone derivatives” (Hoffmann-La Roche Inc., priority 2021, dated 2026).

Experiments:
BRAF (V600E) = BRAF (V600E) (Homo sapiens, UniProt P15056, V600E); assay: KD BRAF (V600E) (Table 1); type: binding
[1] = tested on: P-ERK (ERK phospho-T202/Y204) in A375 cells expressing V600E mutated BRAF; assay: HTRF assay for P-ERK determination in A375 cells (BRAF inhibition); type: cell-based; details: Homo sapiens, A-375, P-ERK level, drug incubation 1 hour, DMSO = 100%, 10 μM Dabrafenib = 0%
Description: (§1) A375 is a cellular cancer model expressing V600E mutated BRAF and HCT116 a cellular cancer model expressing WT BRAF. First generation BRAF inhibitors such as e.g. dabrafenib induce a paradox effect on tumour cells in that they inhibit the growth of V600E mutated BRAF cells (such as e.g. A375), while they activate growth in WT BRAF cells (such as e.g. HCT 116). ERK 1,2 phosphorylation (terminal member of the phosphorylation cascade of the MAPK pathway) is hereafter reported as main readout for the activation status of the MAPK pathway. DMEM no-phenol red medium supplemented with L-glutamine was purchased from (Thermo Fisher Scientific). Fetal bovine serum (FBS) was purchased from VWR. Advanced ERK phospho-T202/Y204 kit—10,000 tests was purchased from Cisbio cat #64AERPEH. A375 (catalog #CRL-1619) and HCT116 (catalog #CCL-247) cells were originally obtained from American type Culture Collection (ATCC) and banked by the Roche repository. 384-Well microplates utilized were purchased from Greiner Bio-One, 384-well, (With Lid, HiBase, Low volume cat 784-080).
(§2) Prior to the assay, A375 and HCT116 cell lines are maintained in DMEM no-phenol red medium supplemented with 10% fetal bovine serum (FBS). Following compound treatment, P-ERK levels are determined by measuring FRET fluorescence signal induced by selective binding of 2 antibodies provided in the mentioned kit (Cisbio cat #64AERPEH) on ERK protein when phosphorylated at Thr202/Tyr204. Briefly, 8000 cells/well in 12 μl media/well are plated in the 384-well plate and left overnight in the incubator (at 37° C. with 5% CO2-humidified atmosphere), the following day the plate is treated in duplicate with test compounds, dabrafenib and PLX8394 (the latter two as controls) at the following final drug concentrations: 10 μM-3 μM 1 μM-0.3 μM-0.1 μM-0.03 μM-0, 01 μM-0.003 μM-0.001 μM, all wells are subjected to DMSO normalization and drug incubation occurs for 1 hour. Then, […] of a 4× lysis buffer supplied with the kit are added to the wells, the plate is then centrifuged for 30 second (3000 rpm) and incubated on a plate shaker for 1 h at rt.
(§3) At the end of the incubation 4 μL/well of advanced P-ERK antibody solution (prepared according to manufacturer's instruction) followed by 4 μL/well of criptate P-ERK antibody solution (prepared according to manufacturer's instruction) (Cisbio cat #64AERPEH) are added to test wells.
(§4) In order to allow proper data normalization control wells non drug treated reported in the following table are always included in each plate (according to manufacturer's instruction):
(§5) The plate is then centrifuged at 3000 rpm for 30 second, sealed to prevent evaporation and incubated overnight in the dark at room temperature.
(§6) The plate is then analyzed and fluorescence emission value collected through a Pherastast FSX (BMG Labtech) apparatus at […].
(§7) The obtained fluorescence values are processed according to the formula Ratio=[…]*10000 then the average of the ratio on the blank is subtracted to all values.
Data are normalized in the case of A375 cells (BRAF inhibition) considering the average of the ratio (blank subtracted) derived by DMSO only treated cells as 100% and by considering the average of the ratio (blank subtracted) derived by 10 μM Dabrafenib treated cells as 0%. Mean of the normalized points are fitted with sigmoidal curve and IC50 determined.

BRAF (wt) = BRAF (wt) (Homo sapiens, UniProt P15056); assay: KD BRAF (wt) (Table 1); type: binding
BRAF (wt), sequence (P15056 whole entry): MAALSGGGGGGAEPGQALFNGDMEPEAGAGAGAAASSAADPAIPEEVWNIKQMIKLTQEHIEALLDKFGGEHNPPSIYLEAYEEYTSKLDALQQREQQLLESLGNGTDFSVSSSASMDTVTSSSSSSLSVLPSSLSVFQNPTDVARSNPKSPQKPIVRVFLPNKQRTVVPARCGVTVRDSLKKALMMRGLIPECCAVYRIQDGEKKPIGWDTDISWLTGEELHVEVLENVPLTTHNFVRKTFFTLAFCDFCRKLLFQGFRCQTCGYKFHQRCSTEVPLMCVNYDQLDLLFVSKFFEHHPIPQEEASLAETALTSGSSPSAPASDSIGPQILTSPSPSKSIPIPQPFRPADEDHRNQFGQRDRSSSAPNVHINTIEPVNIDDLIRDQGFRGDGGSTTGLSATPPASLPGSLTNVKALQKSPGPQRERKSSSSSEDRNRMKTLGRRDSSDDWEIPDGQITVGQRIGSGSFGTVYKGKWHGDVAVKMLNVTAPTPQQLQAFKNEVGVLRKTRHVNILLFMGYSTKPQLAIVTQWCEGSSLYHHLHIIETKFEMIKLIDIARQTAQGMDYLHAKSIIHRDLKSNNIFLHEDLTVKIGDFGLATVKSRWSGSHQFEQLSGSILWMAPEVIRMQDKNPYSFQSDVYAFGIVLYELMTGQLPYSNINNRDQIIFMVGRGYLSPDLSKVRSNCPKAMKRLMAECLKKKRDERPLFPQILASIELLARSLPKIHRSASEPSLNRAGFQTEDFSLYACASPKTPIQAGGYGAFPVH

[2] = tested on: P-ERK (ERK phospho-T202/Y204) in HCT116 cells expressing WT BRAF; assay: HTRF assay for P-ERK determination in HCT116 cells (BRAF activation); type: cell-based; details: Homo sapiens, HCT-116, drug incubation 1 hour, concentration giving 50% of the maximum activation achieved by Dabrafenib
Description: as §1, §2, §3, §4, §5, §6, §7
Data are normalized in the case of HCT116 cells (BRAF activation) considering the average of the ratio (blank subtracted) derived by DMSO only treated cells as 0% and by considering the average of the ratio (blank subtracted) derived by Dabrafenib treated cells at the concentration which provides the highest signal as 100%. Individual points are fitted with either sigmoidal or bell shape curves. The EC50 is the concentration at which activation equal to 50% of the maximum activation achieved by Dabrafenib is obtained.

BRAF (V600E), sequence (P15056 whole entry V600E): as the sequence (P15056 whole entry) above, with V600E counted along it

Row | Structure (SMILES) | Kd (BRAF (V600E)) [nM] | IC50 [1] [nM] | Kd (BRAF (wt)) [nM] | EC50 [2] [nM]
1 | CC(C)(C)OC(=O)N1CCN(C(=O)CCCn2cnc3ccc(Nc4cccc(NS(=O)(=O)N5CC[C@@H](F)C5)c4C#N)cc3c2=O)CC1 [Example 40, tert-butyl 4-[4-[6-[2-cyano-3-[[(3R)-3-fluoropyrrolidin-1-yl]sulfonylamino]anilino]-4-oxo-quinazolin-3-yl]butanoyl]piperazine-1-carboxylate] | 7.88 | 334 | 3.71 | ≥ 10000
2 | N#Cc1c(Nc2ccc3ncn(CCCc4ccccc4)c(=O)c3c2)cccc1NS(=O)(=O)N1CC[C@@H](F)C1 [Example 44, (3R)—N-[2-cyano-3-[[4-oxo-3-(3-phenylpropyl)quinazolin-6-yl]amino]phenyl]-3-fluoro-pyrrolidine-1-sulfonamide] | 25.6 | 18.2 | 15.1 | 2070
3 | CN(CCNC(=O)CCCn1cnc2ccc(Nc3cccc(NS(=O)(=O)N4CC[C@@H](F)C4)c3C#N)cc2c1=O)C(=O)OC(C)(C)C [Example 45, tert-butyl N-[2-[4-[6-[2-cyano-3-[[(3R)-3-fluoropyrrolidin-1-yl]sulfonylamino]anilino]-4-oxo-quinazolin-3-yl]butanoylamino]ethyl]-N-methyl-carbamate] | 8.34 | 814 | 3.41 | ≥ 10000
4 | CC(C)(C)OC(=O)N1CCC(CCn2cnc3ccc(Nc4cccc(NS(=O)(=O)N5CC[C@@H](F)C5)c4C#N)cc3c2=O)CC1 [Example 37, tert-butyl 4-[2-[6-[2-cyano-3-[[(3R)-3-fluoropyrrolidin-1-yl]sulfonylamino]anilino]-4-oxo-quinazolin-3-yl]ethyl]piperidine-1-carboxylate] | 43.7 | 80.6 | 20.8 | 4470
5 | CC(C)(C)OC(=O)NCCCn1cnc2ccc(Oc3c(F)ccc(NS(=O)(=O)N4CCC4)c3C#N)cc2c1=O [Example 9, tert-butyl N-[3-[6-[3-(azetidin-1-ylsulfonylamino)-2-cyano-6-fluoro-phenoxy]-4-oxo-quinazolin-3-yl]propyl]carbamate] | 0.97 | 28.9 | 0.69 | 624
6 | CC(C)(C)OC(=O)N1CCN(CCn2cnc3ccc(Oc4c(F)ccc(NS(=O)(=O)N5CCCC5)c4C#N)cc3c2=O)CC1 [Example 16, tert-butyl 4-[2-[6-[2-cyano-6-fluoro-3-(pyrrolidin-1-ylsulfonylamino)phenoxy]-4-oxo-quinazolin-3-yl]ethyl]piperazine-1-carboxylate] | 2.16 | 11 | 1.61 | 240
7 | N#Cc1c(Nc2ccc3ncn(CCOCc4ccccc4)c(=O)c3c2)cccc1NS(=O)(=O)N1CC[C@@H](F)C1 [Example 36, (3R)—N-[3-[[3-(2-benzyloxyethyl)-4-oxo-quinazolin-6-yl]amino]-2-cyano-phenyl]-3-fluoro-pyrrolidine-1-sulfonamide] | 273 | 114 | 131 | ≥ 10000
8 | CC(C)(C)OC(=O)N1CCC(NC(=O)CCCn2cnc3ccc(Nc4cccc(NS(=O)(=O)N5CC[C@@H](F)C5)c4C#N)cc3c2=O)CC1 [Example 41] | 9.29 | 1510 | 6.19 | ≥ 10000
9 | CC(C)(C)OC(=O)CCCn1cnc2ccc(Nc3cccc(NS(=O)(=O)N4CC[C@@H](F)C4)c3C#N)cc2c1=O [Example 35, tert-butyl 4-[6-[2-cyano-3-[[(3R)-3-fluoropyrrolidin-1-yl]sulfonylamino]anilino]-4-oxo-quinazolin-3-yl]butanoate] | 20.9 | 12.9 | 7.92 | 7220
10 | CC(C)(C)OC(=O)N1CCC(CCn2cnc3ccc(Oc4c(F)ccc(NS(=O)(=O)N5CC[C@@H](F)C5)c4C#N)cc3c2=O)CC1 [Example 2, tert-butyl 4-[2-[6-[2-cyano-6-fluoro-3-[[(3R)-3-fluoropyrrolidin-1-yl]sulfonylamino]phenoxy]-4-oxo-quinazolin-3-yl]ethyl]piperidine-1-carboxylate] | 21.4 | 30.3 | 18.9 | 2250
11 | CC(C)(C)OC(=O)NCCCn1cnc2ccc(Oc3c(F)ccc(NS(=O)(=O)N4CCCC4)c3C#N)cc2c1=O [Example 5, tert-butyl N-[3-[6-[2-cyano-6-fluoro-3-(pyrrolidin-1-ylsulfonylamino)phenoxy]-4-oxo-quinazolin-3-yl]propyl]carbamate] | 2.82 | 18.1 | 1.35 | 1190
12 | CC(C)(C)OC(=O)NCCCn1cnc2ccc(Oc3c(F)ccc(NS(=O)(=O)N4CC[C@@H](F)C4)c3C#N)cc2c1=O [Example 4, tert-butyl N-[3-[6-[2-cyano-6-fluoro-3-[[(3R)-3-fluoropyrrolidin-1-yl]sulfonylamino]phenoxy]-4-oxo-quinazolin-3-yl]propyl]carbamate] | 2.75 | 73.5 | 1.09 | 7080
13 | CCN(C)S(=O)(=O)Nc1cccc(Nc2ccc3ncn(CCOCCOCCNC(=O)OC(C)(C)C)c(=O)c3c2)c1C#N [Example 34, tert-butyl N-[2-[2-[2-[6-[2-cyano-3-[[ethyl(methyl)sulfamoyl]amino]anilino]-4-oxo-quinazolin-3-yl]ethoxy]ethoxy]ethyl]carbamate] | 247 | 287 | 91.9 | ≥ 10000
14 | CN(Cc1ccc(CCCn2cnc3ccc(Oc4c(F)ccc(NS(=O)(=O)N5CCCC5)c4C#N)cc3c2=O)cc1)C(=O)OC(C)(C)C [Example 30, tert-butyl N-[[4-[3-[6-[2-cyano-6-fluoro-3-(pyrrolidin-1-ylsulfonylamino)phenoxy]-4-oxo-quinazolin-3-yl]propyl]phenyl]methyl]-N-methyl-carbamate] | 12.1 | 52.4 | 6.15 | 455
15 | CCC(C)S(=O)(=O)Nc1ccc(F)c(Oc2ccc3ncn(CCN4CCN(C(=O)OC(C)(C)C)CC4)c(=O)c3c2)c1C#N (centres unmarked) [Example 29, tert-butyl 4-[2-[6-[2-cyano-6-fluoro-3-(sec-butylsulfonylamino)phenoxy]-4-oxo-quinazolin-3-yl]ethyl]piperazine-1-carboxylate] | 19.2 | 18.1 | 7.43 | 3670
16 | CC(C)(C)OC(=O)N1CCCC(CCn2cnc3ccc(Oc4c(F)ccc(NS(=O)(=O)N5CCCC5)c4C#N)cc3c2=O)C1 (centres unmarked) [Example 23, tert-butyl 3-[2-[6-[2-cyano-6-fluoro-3-(pyrrolidin-1-ylsulfonylamino)phenoxy]-4-oxo-quinazolin-3-yl]ethyl]piperidine-1-carboxylate] | 10.2 | 49.7 | 9.23 | 2300
17 | CC(C)(C)OC(=O)N1CCC(CCn2cnc3ccc(Oc4c(F)ccc(NS(=O)(=O)C5CCC5)c4C#N)cc3c2=O)CC1 [Example 21, tert-butyl 4-[2-[6-[2-cyano-3-(cyclobutylsulfonylamino)-6-fluoro-phenoxy]-4-oxo-quinazolin-3-yl]ethyl]piperidine-1-carboxylate] | 67.2 | 86.8 | 11.7 | ≥ 10000
